Read-outs that look alike come from different tables or passages of the source.
Legend:
[1] = Solubility of fullerene derivatives in toluene (HPLC determination); type: physicochemical
Description: The solubility of a fullerene derivative can be determined, for example, by diluting a solution of the fullerene derivative with a good solvent, e.g., toluene, and examining the dilution with an analyzer such as, e.g., a high-performance liquid chromatograph (HPLC). More specifically, the procedure is as follows. A dilution of the fullerene derivative solution is analyzed with an HPLC having an ultraviolet/visible detector to determine that peak intensity for the fullerene derivative which is obtained from the absorbance of an ultraviolet light having a specific wavelength (e.g., 290 nm). The concentration of the fullerene derivative in the dilution of the fullerene derivative solution is determined from a calibration curve obtained beforehand from fullerene derivative standard solutions having known concentrations (prepared using the solvent used for diluting the fullerene derivative solution). This concentration value is multiplied by the dilution ratio to thereby determine the fullerene derivative concentration in the original fullerene derivative solution.

[2] = TG examination in nitrogen atmosphere; type: physicochemical; details: for weight loss (TG-DTA): heating rate 10° C./min; for temperature of weight loss attributable to pyrolysis, compared with air: in nitrogen, result in words
Description: The examination was made with apparatus for both differential thermal analysis and thermogravimetry TG/DTA6200, manufactured by SII Nano Technology Inc., in a nitrogen atmosphere (flow rate, 200 mL/min) under the conditions of a heating rate of 10° C./min.

[3] = TG-DTA examination in air atmosphere; type: physicochemical; details: for weight loss (TG-DTA): 300° C. (in air), heating rate 10° C./min
Description: Compounds 1 to 6 synthesized in (1) to (6) above were examined by TG-DTA (thermogravimetric-differential thermal analysis) in order to investigate the behavior thereof in thermal decomposition. The examination was made with apparatus for both differential thermal analysis and thermogravimetry TG/DTA6200, manufactured by SII Nano Technology Inc., in an air atmosphere (flow rate, 200 mL/min) under the conditions of a heating rate of 10° C./min. In [60]fullerene, a large weight loss accompanied by heat generation began to be observed at around 500° C. This weight loss was due to oxidation/combustion. […] This large weight loss is thought to be attributable to the pyrolysis of the fullerene derivative.

[4] = Washing of coating films with toluene before and after heat treatment; type: physicochemical; details: coating film
Description: A 5% by mass PGMEA solution of each of Compounds 1, 2, and 5 and a 5% by mass cyclohexanone solution of each of Compounds 3 and 4 were prepared. Each solution was applied to a glass substrate (50×50 mm) with a spin coater and dried at 100° C. Thereafter, the coating films were examined with an optical microscope. As a result, these coating films were ascertained to be even. These coating films were washed with toluene. As a result, the films were removed. It was thus ascertained that the coating films from which the solvent had been removed were soluble in toluene.
The coating films of Compounds 1 to 5 each formed on a glass substrate in (8) were placed in an electric furnace heated at 300° C. and heat-treated for 10 minutes in an air atmosphere.
The fullerene films obtained by the heat treatment of the coating films of Compounds 1 to 3 were examined by X-ray diffractometry (XRD) with RINT 2500, manufactured by Rigaku Corp. […] Measuring conditions are as follows.
The films which had undergone the heat treatment(s) were washed with toluene. […] It can be seen that although the fullerene derivatives applied in film form had been soluble in toluene solvent, the derivatives became insoluble, through the heat treatment(s), in the solvent in which the fullerene is soluble.

[5] = cited from earlier work
[6] = after heat treatment (300° C./in air), 10 minutes

Question: For “N-(4-hydroxyphenyl)-2-n-dodecylpyrrolidine-C60 [Compound 3]”, which Solubility in toluene [1] is on record?
Answer: 6%

Question: What about the “weight loss (TG-DTA)” value ([2]; 600° C. (in nitrogen)) of the same molecule?
Answer: 12%

Question: What about the “weight loss attributable to fullerene derivative pyrolysis” value ([3]; TG in air, result in words) of the same molecule?
Answer: No weight loss attributable to fullerene derivative pyrolysis was observed

Question: And the Solubility in toluene [4, 6]?
Answer: soluble

Question: And the Solubility in toluene ([4]; after heat treatment (500° C./in air), 10 minutes)?
Answer: insoluble

Question: What about the Solubility in toluene ([4]; before heat treatment) of the same molecule?
Answer: soluble

Question: For `c12c3c4c5c1c1c6c7c2c2c8c3c3c9c4c4c%10c5c5c1c1c6c6c%11c7c2c2c7c8c3c3c8c9c4c4c9c%10c5c5c1c1c6c6c%11c2c2c7c3c3c8c4c4c9c5c1c1c6c2c3c41` [[60]fullerene], which “solubility of [60]fullerene in the solvent” value (“solubility of [60]fullerene” below) ([5]; 1,2,3-trimethylbenzene) is on record?
Answer: 4700 µg/mL

Question: And the “solubility of [60]fullerene” value ([5]; 1,2,4-trichlorobenzene)?
Answer: 10400 µg/mL

Question: What about the “solubility of [60]fullerene” value ([5]; 1,2,4-trimethylbenzene) of the same molecule?
Answer: 17900 µg/mL

Question: And the “solubility of [60]fullerene” value ([5]; 1,3,5-trimethylbenzene)?
Answer: 1500 µg/mL

Question: And the “solubility of [60]fullerene” value ([5]; 1-methylnaphthalene)?
Answer: 33200 µg/mL

Question: And the “solubility of [60]fullerene” value ([5]; 1-phenylnaphthalene)?
Answer: 50000 µg/mL

Question: What about the “solubility of [60]fullerene” value ([5]; N-methyl-2-pyrrolidone) of the same molecule?
Answer: 890 µg/mL

Question: What about the “solubility of [60]fullerene” value ([5]; bromobenzene) of the same molecule?
Answer: 2800 µg/mL

Question: And the “solubility of [60]fullerene” value ([5]; chlorobenzene)?
Answer: 5700 µg/mL

Question: What about the “solubility of [60]fullerene” value ([5]; chloroform) of the same molecule?
Answer: 500 µg/mL

Question: What about the “solubility of [60]fullerene” value ([5]; cyclohexane) of the same molecule?
Answer: 50 µg/mL

Question: And the “solubility of [60]fullerene” value ([5]; decalin)?
Answer: 4600 µg/mL

Question: And the “solubility of [60]fullerene” value ([5]; dichloromethane)?
Answer: 250 µg/mL

Question: And the “solubility of [60]fullerene” value ([5]; ethylbenzene)?
Answer: 2600 µg/mL

Question: What about the “solubility of [60]fullerene” value ([5]; m-dichlorobenzene) of the same molecule?
Answer: 2400 µg/mL

Question: What about the “solubility of [60]fullerene” value ([5]; m-xylene) of the same molecule?
Answer: 1400 µg/mL

Question: And the “solubility of [60]fullerene” value ([5]; n-decane)?
Answer: 70 µg/mL

Question: What about the “solubility of [60]fullerene” value ([5]; n-dodecane) of the same molecule?
Answer: 90 µg/mL

Question: And the “solubility of [60]fullerene” value ([5]; n-hexane)?
Answer: 40 µg/mL

Question: What about the “solubility of [60]fullerene” value ([5]; n-tetradecane) of the same molecule?
Answer: 126 µg/mL

Question: And the “solubility of [60]fullerene” value ([5]; o-dichlorobenzene)?
Answer: 24600 µg/mL

Question: What about the “solubility of [60]fullerene” value ([5]; o-xylene) of the same molecule?
Answer: 8700 µg/mL

Question: What about the “solubility of [60]fullerene” value ([5]; p-xylene) of the same molecule?
Answer: 5900 µg/mL

Question: What about the “solubility of [60]fullerene” value ([5]; quinoline) of the same molecule?
Answer: 7200 µg/mL

Question: And the “solubility of [60]fullerene” value ([5]; tetrahydrofuran)?
Answer: 37 µg/mL

Question: And the “solubility of [60]fullerene” value ([5]; toluene)?
Answer: 2900 µg/mL

Question: And the “solubility of [60]fullerene” value ([5]; xylene)?
Answer: 5200 µg/mL

Question: What about the “temperature of oxidation/combustion (large weight loss with heat generation / large exothermic peak)” value ([3]; in air) of the same molecule?
Answer: around 500 °C

Question: Which Solubility in toluene [1] does the source give for C60(tBu-isonipecotate)4(O) [Compound 5] here?
Answer: ≥ 10%

Question: And the “weight loss (TG-DTA)” value ([2]; 300° C. (in nitrogen))?
Answer: 44%

Question: What about the “temperature of weight loss attributable to pyrolysis, compared with air” value [2] of the same molecule?
Answer: almost the same temperature as in air

Question: What about the “weight loss (TG-DTA)” value [3] of the same molecule?
Answer: 37%

Question: What about the “temperature of weight loss attributable to pyrolysis of the fullerene derivative” value ([3]; in air) of the same molecule?
Answer: around 200 °C

Question: And the Solubility in toluene [4, 6]?
Answer: insoluble

Question: And the Solubility in toluene ([4]; before heat treatment)?
Answer: soluble

Question: Which results are given for “C60 (t-Butoxycarbonylmethylpiperazine)4(O) [Compound 6]”?
Answer: Solubility in toluene [1]: ≥ 10%; weight loss (TG-DTA) ([2]; 300° C. (in nitrogen)): 50%; temperature of weight loss attributable to pyrolysis, compared with air [2]: almost the same temperature as in air; weight loss (TG-DTA) [3]: 38%; temperature of weight loss attributable to pyrolysis of the fullerene derivative ([3]; in air): around 200 °C
